Key:
Test in all cases: Two-electrode voltage-clamp concentration-activation by the natural agonist, receptor expressed in Xenopus oocytes
Format in all cases: cell-based
Set-up in all cases: The corresponding open reading frames (ORF) were cloned into the pT7-TS transcription vector; expressed in transfected cells; host or cells: Xenopus laevis oocytes, cRNA injection
Settings in all cases: concentration-activation curve
Hsa-GABA α1β2γ2 = Hsa-GABA α1β2γ2 (Homo sapiens, UniProt P14867+P18507+P47870)
Text: (§1) Complementary DNA (cDNA) encoding for the human GABAA proteins α1 (NM_001127645.2), α2 (NM_001377146.1), α3 (KJ620007.1), α4 (NM_000809.4), α5 (NM_000810.4), α6 (NM_000811.3), β2 (XM_054352312.1), β3 (M82919.1), γ2 (NM_000816.3) and δ (NM_000815.5) were ordered from Genewiz (www.genewiz.com; Leipzig, Germany); for each gene, GenBank accession numbers are provided in parentheses. When necessary, silent mutations were introduced to break NheI or XhoI internal restriction sites. The corresponding open reading frames (ORF) were cloned into the pT7-TS transcription vector (introducing X. laevis β-globin untranslated cDNA to the 5’ and 3’ ends of the gene), following a procedure described in detail in a previous publication. The same process was used to obtain cDNA encoding canine GABAA proteins α4 (XM_025435560.1), α6 (XM_022417729.1) and δ (XM_005620414.2). Gene α2 (XM_025435664.1), α3 (XM_549343.5), α5 (XM_545805.6) and β3 (XM_025437408.1) were obtained by PCR; GenBank reference accession numbers are provided in parentheses. RNA extraction, cDNA synthesis and PCR amplification were performed as described previously. Total RNA was extracted from a piece of dog brain (Beagle breed; Canis lupus familiaris) from which 1 µg of total RNA (DNase-treated) was reverse-transcribed to cDNA using a (dT)30 primer and SuperScript III Reverse Transcriptase (Invitrogen, Thermo Fisher Scientific, Waltham, MA, USA). Gene-specific primers (Additional file 1: Table S1) were designed using Primer 3 software (http://frodo.wi.mit.edu/). […] The cycling conditions were: 98 °C for 30 s; then 38 cycles of 98 °C for 10 s, 58 °C for 30 s and 72 °C for 90 s; followed by 72 °C for 5 min. The dog subunits α1 (XM_546261.5), β2 (XM_014113040.1) and γ2 (XM_546259.5) had been previously amplified and described in a study by Rufener et al..
(§2) Defoliculated X. laevis oocytes ordered from Ecocyte Bioscience (Dortmund, Germany) were microinjected with 15–25 nl of cRNA solution (5–50 ng/μl) per oocyte using an automated injector (Roboinject; Multi Channel Systems MCS GmbH, Reutlingen, Germany) and then incubated at 18 °C. All recordings were made 1–5 days post-cRNA injection and were performed at 18 ± 4 °C. Cells were superfused with OR2 medium (NaCl 88 mM, KCl 2.5 mM, HEPES 5 mM, CaCl2•2H2O 1.8 mM, MgCl2•7H2O 1.0 mM, pH 7.4). To ensure that γ2 subunits were integrated into the heteropentamers, we injected fivefold more γ2 than the other subunit cRNAs. Diazepam is a positive allosteric modulator of GABAR only if γ2 subunits are present. Therefore, we used this method to confirm the presence of human and dog GABAA receptor containing the γ2 subunit.
(§3) Voltage-clamp measurements were performed as described by Rufener et al.. Oocytes were impaled with two electrodes filled with 3 M KCl, and their membrane potentials were maintained at − 80 mV throughout the experiment. […] Recordings were performed using an automated process equipped with standard two-electrode voltage-clamp configuration (HiClamp system; Multi Channel Systems MCS GmbH). Data were filtered at 10 Hz, captured at 100 Hz and analyzed using proprietary data acquisition and analysis software in MATLAB (Mathworks Inc., Natick, MA, USA). Additional analyses were performed using Excel (Microsoft, Redmond, WA, USA). […] Graphing the maximum inward currents against the log of agonist concentration produces typical concentration-activation and concentration-inhibition curves, which can be accurately described using individual Hill equations.

Hsa-GABA α2β2γ2 = Hsa-GABA α2β2γ2 (Homo sapiens, UniProt P18507+P47869+P47870)
Text: as §1, §2, §3

Hsa-GABA α2β3γ2 = Hsa-GABA α2β3γ2 (Homo sapiens, UniProt P18507+P28472+P47869)
Text: as §1, §2, §3

Hsa-GABA α3β2γ2 = Hsa-GABA α3β2γ2 (Homo sapiens, UniProt P18507+P34903+P47870)
Text: as §1, §2, §3

Hsa-GABA α5β2γ2 = Hsa-GABA α5β2γ2 (Homo sapiens, UniProt P18507+P31644+P47870)
Text: as §1, §2, §3

Hsa-GABA α6β2γ2 = Hsa-GABA α6β2γ2 (Homo sapiens, UniProt P18507+P47870+Q16445)
Text: as §1, §2, §3

Chain of Hsa-GABA α6β2γ2 (Q16445 20-453): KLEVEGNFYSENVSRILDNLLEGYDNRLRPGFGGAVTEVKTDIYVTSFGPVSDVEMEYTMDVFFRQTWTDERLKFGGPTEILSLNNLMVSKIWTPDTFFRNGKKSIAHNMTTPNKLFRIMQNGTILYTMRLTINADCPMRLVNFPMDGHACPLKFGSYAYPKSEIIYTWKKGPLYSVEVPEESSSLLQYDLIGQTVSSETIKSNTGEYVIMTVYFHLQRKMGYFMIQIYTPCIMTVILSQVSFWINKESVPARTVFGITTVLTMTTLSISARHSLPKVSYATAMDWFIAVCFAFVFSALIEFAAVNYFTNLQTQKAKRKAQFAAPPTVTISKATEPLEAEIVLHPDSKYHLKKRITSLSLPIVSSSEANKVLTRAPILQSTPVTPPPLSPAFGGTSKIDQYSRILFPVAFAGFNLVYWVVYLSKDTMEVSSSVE
Chain of Hsa-GABA α6β2γ2 (P47870 26-474 isoform P47870-1 limits assumed): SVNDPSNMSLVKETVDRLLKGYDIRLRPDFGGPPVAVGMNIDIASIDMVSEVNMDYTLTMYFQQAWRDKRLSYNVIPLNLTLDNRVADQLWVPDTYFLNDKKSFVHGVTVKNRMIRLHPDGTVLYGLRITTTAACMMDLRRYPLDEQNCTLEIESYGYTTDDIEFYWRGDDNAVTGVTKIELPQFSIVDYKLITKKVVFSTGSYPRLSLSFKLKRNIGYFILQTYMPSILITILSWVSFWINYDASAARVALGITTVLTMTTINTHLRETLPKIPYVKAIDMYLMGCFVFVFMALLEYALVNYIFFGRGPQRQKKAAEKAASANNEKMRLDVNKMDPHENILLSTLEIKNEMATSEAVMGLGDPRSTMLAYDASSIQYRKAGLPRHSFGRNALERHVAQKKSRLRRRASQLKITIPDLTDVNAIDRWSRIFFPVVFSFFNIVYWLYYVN
Chain of Hsa-GABA α6β2γ2 (P18507 40-467 isoform P18507-1 limits assumed): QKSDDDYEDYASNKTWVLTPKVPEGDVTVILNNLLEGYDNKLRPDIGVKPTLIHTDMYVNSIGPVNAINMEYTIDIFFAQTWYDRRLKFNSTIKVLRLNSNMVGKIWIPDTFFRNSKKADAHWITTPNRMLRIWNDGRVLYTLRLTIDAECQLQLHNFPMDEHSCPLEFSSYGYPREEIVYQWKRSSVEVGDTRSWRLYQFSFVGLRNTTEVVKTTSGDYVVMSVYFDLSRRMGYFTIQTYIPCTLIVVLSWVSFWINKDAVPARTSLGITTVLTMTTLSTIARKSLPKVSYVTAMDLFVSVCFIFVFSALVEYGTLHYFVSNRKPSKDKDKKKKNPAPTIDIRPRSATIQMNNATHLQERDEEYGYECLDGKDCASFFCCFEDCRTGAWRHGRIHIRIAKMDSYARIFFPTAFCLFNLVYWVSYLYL
Chain of Hsa-GABA α3β2γ2 (P34903 29-492): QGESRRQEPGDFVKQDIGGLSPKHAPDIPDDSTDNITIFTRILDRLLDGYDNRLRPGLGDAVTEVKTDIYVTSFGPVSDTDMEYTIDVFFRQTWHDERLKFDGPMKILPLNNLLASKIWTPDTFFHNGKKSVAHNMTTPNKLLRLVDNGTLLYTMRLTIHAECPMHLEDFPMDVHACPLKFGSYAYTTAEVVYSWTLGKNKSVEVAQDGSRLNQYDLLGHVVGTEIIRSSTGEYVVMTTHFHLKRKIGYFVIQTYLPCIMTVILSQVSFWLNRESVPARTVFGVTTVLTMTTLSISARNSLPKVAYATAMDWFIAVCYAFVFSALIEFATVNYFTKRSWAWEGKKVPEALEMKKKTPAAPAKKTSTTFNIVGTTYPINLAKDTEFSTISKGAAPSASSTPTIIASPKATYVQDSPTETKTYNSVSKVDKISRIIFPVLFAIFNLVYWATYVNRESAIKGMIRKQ
Chain of Hsa-GABA α3β2γ2 (P47870 26-474 isoform P47870-1 limits assumed): as the sequence (P47870 26-474 isoform P47870-1 limits assumed) above
Chain of Hsa-GABA α3β2γ2 (P18507 40-467 isoform P18507-1 limits assumed): as the sequence (P18507 40-467 isoform P18507-1 limits assumed) above
Chain of Hsa-GABA α5β2γ2 (P31644 32-462): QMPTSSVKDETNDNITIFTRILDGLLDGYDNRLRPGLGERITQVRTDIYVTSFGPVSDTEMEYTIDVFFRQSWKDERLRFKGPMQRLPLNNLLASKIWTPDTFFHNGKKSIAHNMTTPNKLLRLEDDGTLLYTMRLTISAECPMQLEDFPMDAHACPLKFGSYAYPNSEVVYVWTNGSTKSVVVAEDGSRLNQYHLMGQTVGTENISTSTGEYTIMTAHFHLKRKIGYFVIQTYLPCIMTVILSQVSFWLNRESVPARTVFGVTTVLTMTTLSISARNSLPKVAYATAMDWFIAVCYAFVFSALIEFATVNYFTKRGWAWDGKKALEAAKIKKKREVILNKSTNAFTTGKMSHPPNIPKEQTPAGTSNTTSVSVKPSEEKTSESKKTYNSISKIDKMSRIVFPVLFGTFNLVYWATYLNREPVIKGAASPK
Chain of Hsa-GABA α5β2γ2 (P47870 26-474 isoform P47870-1 limits assumed): as the sequence (P47870 26-474 isoform P47870-1 limits assumed) above
Chain of Hsa-GABA α5β2γ2 (P18507 40-467 isoform P18507-1 limits assumed): as the sequence (P18507 40-467 isoform P18507-1 limits assumed) above
Chain of Hsa-GABA α2β2γ2 (P47869 29-451): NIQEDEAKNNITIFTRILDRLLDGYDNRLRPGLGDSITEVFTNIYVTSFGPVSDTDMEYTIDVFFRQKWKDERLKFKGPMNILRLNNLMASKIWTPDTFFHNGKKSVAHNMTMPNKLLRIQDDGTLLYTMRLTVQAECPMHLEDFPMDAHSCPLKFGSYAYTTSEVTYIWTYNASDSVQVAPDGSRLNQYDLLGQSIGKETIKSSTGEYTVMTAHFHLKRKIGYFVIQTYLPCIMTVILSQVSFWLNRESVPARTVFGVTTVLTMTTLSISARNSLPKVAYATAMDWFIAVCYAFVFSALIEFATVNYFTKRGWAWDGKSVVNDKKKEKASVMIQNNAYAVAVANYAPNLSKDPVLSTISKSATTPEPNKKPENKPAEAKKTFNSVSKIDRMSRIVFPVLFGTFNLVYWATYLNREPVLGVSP
Chain of Hsa-GABA α2β2γ2 (P47870 26-474 isoform P47870-1 limits assumed): as the sequence (P47870 26-474 isoform P47870-1 limits assumed) above
Chain of Hsa-GABA α2β2γ2 (P18507 40-467 isoform P18507-1 limits assumed): as the sequence (P18507 40-467 isoform P18507-1 limits assumed) above
Chain of Hsa-GABA α2β3γ2 (P47869 29-451): as the sequence (P47869 29-451) above
Chain of Hsa-GABA α2β3γ2 (P28472 26-473): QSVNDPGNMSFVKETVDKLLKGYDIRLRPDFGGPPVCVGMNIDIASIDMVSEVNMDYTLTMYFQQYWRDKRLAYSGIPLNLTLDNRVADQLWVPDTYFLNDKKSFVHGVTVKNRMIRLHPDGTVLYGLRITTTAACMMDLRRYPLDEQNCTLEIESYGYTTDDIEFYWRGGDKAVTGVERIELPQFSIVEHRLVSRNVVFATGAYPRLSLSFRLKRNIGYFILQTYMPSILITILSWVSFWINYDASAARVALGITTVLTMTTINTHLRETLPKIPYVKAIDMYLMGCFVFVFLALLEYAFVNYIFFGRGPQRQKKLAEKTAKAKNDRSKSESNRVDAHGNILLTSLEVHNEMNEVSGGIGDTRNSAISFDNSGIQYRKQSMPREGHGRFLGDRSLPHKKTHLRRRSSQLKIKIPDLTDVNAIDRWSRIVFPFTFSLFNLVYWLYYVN
Chain of Hsa-GABA α2β3γ2 (P18507 40-467 isoform P18507-1 limits assumed): as the sequence (P18507 40-467 isoform P18507-1 limits assumed) above
Chain of Hsa-GABA α1β2γ2 (P14867 28-456): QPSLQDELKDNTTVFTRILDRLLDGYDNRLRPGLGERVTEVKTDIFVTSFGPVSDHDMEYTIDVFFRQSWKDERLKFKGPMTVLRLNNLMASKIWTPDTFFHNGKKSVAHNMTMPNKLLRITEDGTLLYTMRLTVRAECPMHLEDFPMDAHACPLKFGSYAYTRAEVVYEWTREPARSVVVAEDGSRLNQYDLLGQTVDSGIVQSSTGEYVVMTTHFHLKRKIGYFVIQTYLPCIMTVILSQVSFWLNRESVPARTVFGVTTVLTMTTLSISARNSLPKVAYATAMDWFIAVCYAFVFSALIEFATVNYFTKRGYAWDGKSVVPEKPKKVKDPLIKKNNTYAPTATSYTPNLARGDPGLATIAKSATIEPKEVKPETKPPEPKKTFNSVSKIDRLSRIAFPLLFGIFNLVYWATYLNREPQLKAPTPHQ
Chain of Hsa-GABA α1β2γ2 (P47870 26-474 isoform P47870-1 limits assumed): as the sequence (P47870 26-474 isoform P47870-1 limits assumed) above
Chain of Hsa-GABA α1β2γ2 (P18507 40-467 isoform P18507-1 limits assumed): as the sequence (P18507 40-467 isoform P18507-1 limits assumed) above

For `NCCCC(=O)O` [GABA, gamma-aminobutyric acid], the “nH (Hill coefficient)” value (Hsa-GABA α1β2γ2) was 1.7, the “nH (Hill coefficient)” value (Hsa-GABA α2β2γ2) was 1.4 and the “nH (Hill coefficient)” value (Hsa-GABA α2β3γ2) was 1.2. The “nH (Hill coefficient)” value (Hsa-GABA α3β2γ2) was 1.2, the “nH (Hill coefficient)” value (Hsa-GABA α5β2γ2) was 1.1 and the “nH (Hill coefficient)” value (Hsa-GABA α6β2γ2) was 1.1.

Reference: paper PMC12144822 (Parasites & Vectors, 2025)
